The numbers were not newly measured in patent US20080096926A1, “Treatment Of Cognitive Impairment Using A Selective Dopamine D1 Receptor Agonist” (DrugAbuse Sciences SAS, priority 2002, published 2008), which cites them from elsewhere.

One data set deals with healthy volunteers. The following applies: 0.1 mg, 32 healthy volunteers.
In data set [1] the test system is non-human primate model of cognitive impairment.
The test system of the next data set is monkeys. Particulars: 0.1, 0.3 and 1 mg/kg/day IM.
The next data set relates to MPTP treated monkeys. The following applies: for anti-parkinsonian activity: MPTP treated monkeys.
Data set [2] has as its system young control monkeys and aged monkeys.
The test system of data set [3] is prefrontal cortex of rhesus monkeys. Particulars: local injections into the prefrontal cortex of rhesus monkeys.

Where a name gives a salt, the structure may show the parent alone.

In the case of `CCCN1C[C@H](CSC)C[C@@H]2c3cccc4[nH]cc(c34)C[C@H]21` [pergolide], the “effect on spatial memory” value in the data set on healthy volunteers was “positive effect”.
Turning to `Cc1nc2n(c(=O)c1CCN1CCC(c3noc4cc(F)ccc34)CC1)CCCC2` [Risperidone, risperidone], in the data set with schizophrenia (schizophrenia), the executive functioning result was “positive effects”; the “verbal learning and memory” value is listed as “inconsistent results”; the working memory entry is “positive effects”.
On to `CN1CCN(C2=Nc3cc(Cl)ccc3Nc3ccccc32)CC1` [clozapine], for which the severe side effects result with schizophrenia (in vivo) is listed as “agranulocytosis”.
Take `CCCc1cc2c(s1)CN[C@@H]1CCc3cc(OC(C)=O)c(OC(C)=O)cc3[C@@H]21` [DAS-431, (−)-trans 9,10-diacetyloxy-2-propyl-4,5,5a,6,7,11b-hexahydro-3-thia-5-azacyclopent-1-ena[c] phenanthrene hydrochloride]: the “reversal of haloperidol-induced working memory impairment” value in [1] (0.01 μg/kg to 0.1 μg/kg IM, five blocks of five consecutive days) is “reverse the haloperidol effects”. In addition, in data set [1] (in some monkeys), the “persistence of treatment effect after the final treatment” value is given as “more than a year”. For the same compound, the tolerance entry in the data set with monkeys is listed as “tolerance may have developed after 3 days of treatment”. Further, the “effect following repeated administration” value with MPTP-lesioned macaques (other studies (Michaelides et al. 1995)) is on record as “potent effect is maintained”. Besides, in the data set on MPTP-lesioned macaques (three-time daily 0.32 mg/kg s.c. for thirty days), the efficacy over time result is listed as “no difference over time”. Besides, the “antiparkinsonian activity (reported for D1 agonists)” value in the data set on MPTP treated monkeys (model not stated) is reported as “antiparkinsonian activity”. Further, the “dose relationship of adverse events” value (1 mg to 40 mg IV per day) was “no clear dose relationship with the exception of nausea and vomiting in the cocaine abuser population and of dizziness in all subjects”. Under “Parkinson's disease population”, the “tolerance to side effects” value was “rapid tolerance to nausea and vomiting”. Under “in vivo”, the EKG entry is recorded as “Transitory EKG changes” and the “severity of adverse events” value is “mild or moderate”. The adverse events entry (previous treatment protocols) is “high incidence of dopamine related symptoms such as nausea, vomiting, hypotension, postural hypotension, dizziness, injection and application site reactions”.
For `Oc1cc2c(cc1O)[C@H]1c3ccccc3CN[C@@H]1CC2` (racemic) [dihydrexidine], the “memory performance in monkeys following administration of D1 agonists” value in data set [2] is “Improved memory performance”. Moreover, the memory performance entry in [2] (young control monkeys and aged monkeys) was “improves memory performance”. Besides, in the data set with MPTP treated monkeys, the anti-parkinsonian activity entry is reported as “attenuates these parkinsonian signs while increasing eye blink rate”.
With `C=CCN1CCc2c(cc(O)c(O)c2Cl)C(c2ccccc2)C1` (stereo not drawn) [SKF 82958], in the data set with MPTP treated monkeys, the anti-parkinsonian activity entry is “increase locomotor activity and improve parkinsonian score”.
For `CN1CCc2cc(Cl)c(O)cc2[C@H]2c3ccccc3CC[C@@H]21` [SCH39166], in data set [3], the “performance on working memory tasks” value is “induce errors and increase latency of performance”.
`Oc1cc2c(cc1O)C(c1ccccc1)CNCC2` (stereo not drawn) [SKF 38393]: the “memory performance in monkeys following administration of D1 agonists” value in [2] is on record as “Improved memory performance”. Besides, in the data set on MPTP treated monkeys, the anti-parkinsonian activity entry is “without anti-parkinsonian activity”. In addition, in the data set on rats, the food intake result is given as “decrease food intake”.
